Test results as given in a melting point compilation (Tetko et al.; mined from patent text by program, amines drawn as free bases though some values may be those of a salt).

Row | SMILES | melting point
1 | COc1ccc2c(c1OC(C)=O)N=CC1CCCN1C2=O (configuration not stated) | 144 to 146 °C
2 | Cc1nc(-n2cc(CCCc3ccccc3)nn2)sc1C(=O)NCc1cccnc1 | 108 to 110 °C
3 | CCN(C(=O)Cn1c(=O)n(C)c2nc(-c3ccccc3)ncc21)c1ccc(O)cc1 | 254 to 256 °C
4 | Cc1ccc(-c2cncnc2O)cc1 | 189 to 192 °C
5 | O=CN(O)C(CO)CS(=O)(=O)c1ccc(-c2ccc(Cl)cc2)cc1 (configuration not stated) | 153 to 154 °C
6 | COCOc1ccc(C=O)c(OCc2ccc(Cl)cc2Cl)c1C | 128 °C
7 | Cn1cc(-c2cc3cccnc3[nH]2)c2ccc(C(=O)O)cc21 | 359 to 361 °C
8 | CC(=O)NC(NC(=O)c1ccccc1C(=O)O)C(=O)NCc1ccccc1 (configuration not stated) | 186 to 188 °C
9 | Cn1c(C(F)(F)F)cc(=O)n(-c2cc(OC(=O)CC#N)c(Cl)cc2F)c1=O | 157 to 160 °C
10 | Clc1ccc(Oc2nc(Cl)nc(Cl)n2)c(Cl)c1 | 120 to 122 °C
11 | CCNCc1nc(-c2ncn3c2CN(C)C(=O)c2cc(F)ccc2-3)no1 | 166 to 168 °C
12 | CC(O)c1cc(S(N)(=O)=O)ccc1F (configuration not stated) | 150 to 152 °C
13 | Cc1ccc(F)cc1-n1c(CF)nc2ccc(N)cc2c1=O | 174 to 176 °C
14 | Nc1nc(Oc2cc(F)cc(F)c2)nc2nc(-c3ccco3)nn12 | > 300 °C
15 | OCC1CC2CCC13CN(CC1CC1)CCC31c3cccc(O)c3OC21 (configuration not stated) | 187 to 190 °C
16 | CCOc1ccc(N2CCN(c3c(C)c4c(c(OCC)c3C)OC(C)C4)CC2)cc1 (configuration not stated) | 121 to 122 °C
17 | CC(C)(C)ON=C1CC(=NOC(C)(C)C)c2ccccc2-c2ccccc21 | 181 to 183 °C
18 | c1ccc(-c2cc3cccc(CSCCN4CCCCC4)c3o2)cc1 | 64.5 to 65.5 °C
19 | COc1ccc(-c2cccc3c2/C(=C/c2ccc[nH]2)C(=O)N3)cc1 | 222 to 223 °C
20 | COc1ccc(C2Sc3cc(Oc4cccc(C)c4)ccc3NC(=O)C2O)cc1 (configuration not stated) | 201 to 202 °C
21 | COCC1CN(c2ccc(C3CCC(OC(C)=O)CC3)cc2)C(=O)O1 (racemic) | 78 to 79 °C
22 | O=C(O)c1ccc(NC(c2ccc(Cl)cc2)c2ccc(Cl)cc2)cc1 | 245 to 247 °C

Row | SMILES | melting point
23 | CC1(C)CC(SCc2c(C(F)(F)F)nn(-c3ccccc3)c2Cl)=NO1 | 89 to 90 °C
24 | O=Cc1ccccc1OC(=O)C(=O)Oc1ccccc1C=O | 134 to 135 °C
25 | COc1ccc(C(=O)Nc2ccc3ccc(CO)nc3n2)cc1 | 212 °C
26 | CC(NC(=O)C(O)c1cc(F)cc(F)c1)C(=O)Nc1ccc2c(c1)NC(=O)Cc1cccn1-2 (configuration not stated) | 239 to 240 °C
27 | ClCc1nnnn1C1CCCCC1 | 101 to 104 °C
28 | CN1CCN(c2cccc3ccc(O)cc23)CC1 | 112 °C
29 | O=Cc1c2ccccc2cc2cccc(SCCO)c12 | 103 to 104 °C
30 | Cc1ccccc1COC(=O)NC(CO)Cc1ccc(O)cc1 (configuration not stated) | 78 to 81 °C
31 | COC(=O)C1=NC2=COc3cc(C)c(Cl)cc3N2C1C(=O)O (configuration not stated) | 240 to 244 °C
32 | Cc1cc(Cn2cc(C(F)(F)C(F)(F)F)c(C(F)(F)C(F)(F)F)n2)ccc1NC(=O)c1cccc(Br)c1C(=O)N[C@@H](C)CS(C)(=O)=O | 134 to 136 °C
33 | Nc1cc2c(Nc3ccc(Br)c(Br)c3)ncnc2cn1 | 265 to 268 °C
34 | CCOc1noc(-c2ncn(C(c3ccccc3)(c3ccccc3)c3ccccc3)n2)c1C | 181 to 183 °C
35 | COc1cc(Cl)nc(NC(=O)NS(=O)(=O)c2ccccc2OC(Cl)=CCl)n1 | 196 to 198 °C
36 | NS(=O)(=O)c1ccc(-c2cccc(-c3nc(-c4ccc(C(F)(F)F)c(F)c4)cc(C(F)(F)F)n3)c2)s1 | 214 °C
37 | N#Cc1cc2ccc(O)cc2s1 | 195 to 198 °C
38 | CC(C)(C)OC(=O)Nc1ccc(Nc2n[nH]c(N)c2C#N)cc1 | 166 to 168 °C
39 | COc1cccc(C=C2N=C(c3ccccc3)OC2=O)c1 | 100 to 102 °C
40 | O=C(Nc1ccc(Oc2ccccc2)cc1)N1CCN(c2ccnc3c(Cl)cccc23)CC1 | 174 to 175 °C
41 | CCOC(=O)Nc1ccc2oc(CCC(F)(F)F)cc2c1 | 108 °C
42 | C=C(C)C(=O)NC1=NN(c2ccc(Cl)c(Cl)c2)C(=O)C1 | 212 to 213 °C
43 | Nc1c(-c2cc(Cl)ccc2O)c2c(C(F)(F)F)cccc2[nH]c1=O | 267 to 268 °C

The next lines start with the values.

Row | melting point | SMILES
44 | 240 to 245 °C | O=C(O)c1c[nH]c2nc(NCc3ccccc3)nn2c1=O
45 | 57 to 61 °C | Cc1ccc(C=CC(=O)c2ccccc2)o1
46 | 224 °C | NS(=O)(=O)c1nc2cc(O)ccc2s1
47 | 139 to 141 °C | CCCCC(CC)C(=O)Nc1ccc2ccn(Cc3ccc(C(=O)OC)cc3)c2c1 (configuration not stated)
48 | 171 to 173 °C | Cc1c(C)c2c(c(C)c1NC(=O)CC(C)(C)C)C(c1ccc(C(C)C)cc1)CO2 (configuration not stated)
49 | 143 to 144 °C | CCOC(=O)c1cccc(C2COc3c(ccc(O)c3C)C2)c1 (configuration not stated)
50 | 222 °C | Cc1cc(-c2cn[nH]c2N)cc(C)n1
51 | 192 to 193 °C | COc1ccnc(-c2ccccc2S(=O)c2nc3cc(N)ccc3[nH]2)c1 (configuration not stated)
52 | 98 to 101 °C | O=C1OC(COc2ccccc2)CN1Sc1ccc(Cl)cc1 (configuration not stated)
53 | 109 to 110 °C | COC(=O)C(C)(Cc1c[nH]c2ccc(OC)cc12)[N+](=O)[O-] (racemic)
54 | 125 to 130 °C | CCN(CC)CCOC(=O)c1ccc2nc3n(c(=O)c2c1)C(C)CC3=Cc1ccccc1 (configuration not stated)
55 | 191 to 194 °C | Cc1nn(C)c(=O)c(-n2nc(-c3ccc(C(F)(F)F)cc3)cc2C)c1O
56 | 60 to 61 °C | O=C(CCCCCCCBr)OC(C(=O)c1ccccc1)c1ccccc1 (configuration not stated)
57 | 130 to 133 °C | COc1cc(OC)cc(C(=O)NCC23CC4CC(CC(C4)C2)C3)c1
58 | 132 to 133 °C | COc1ccc(C(C)(C)C)cc1C(N)=NO
59 | 106 to 108 °C | CC(C)(O)c1ccc(CNC(=O)c2cccnc2Oc2ccc(F)cc2)cc1
60 | 29 to 30 °C | Cc1cc(CCCCCOc2c(Cl)cc(-c3ccco3)cc2Cl)on1
61 | 160 to 162 °C | CN(c1cccnc1S(N)(=O)=O)S(=O)(=O)CF
62 | 128 to 131 °C | COc1cc(C(O)c2ccccc2[N+](=O)[O-])c(Br)cn1 (configuration not stated)
63 | 94.5 to 96.5 °C | Cn1cc(C(=O)OCC23CCCN(CC2)C3)c2ccccc21 (configuration not stated)

Row | melting point | SMILES
64 | 145 °C | COC(=O)/C=C/n1cnc2ccc(C(C)C)cc2c1=O
65 | 211 to 213 °C | CCN(CC)c1ccc(-c2cnc3[nH]cc(C(=O)C4(C)CCCCC4)c3n2)cc1
66 | 210 °C | O=C(O)Cc1cc(=O)oc2cc(O)ccc12
67 | 144 to 146 °C | CCn1nc(OCC(=O)C(C)(C)C)c(-c2ccc(F)cc2)c1-c1ccc(S(C)(=O)=O)cc1
68 | 144 to 146 °C | O=C1CCOc2c1ccc1oc(Cl)cc21
69 | 97 to 100 °C | O=C(CN1C(=O)C2(COc3cc(F)c(F)cc32)c2ccccc21)Nc1ccccc1F (configuration not stated)
70 | 150 °C | CCCCc1nc2cnc3cccnc3c2n1CCOc1ccccc1
71 | 161 to 163 °C | Nc1cccc(-c2nc(-c3cccnc3)no2)c1
72 | 153 to 155 °C | COC(=O)CCc1sc(Sc2ccc(O)cc2)nc1-c1ccccc1
73 | 129 °C | CN1CCC(N(Cc2cccn2C)S(=O)(=O)c2ccc(Nc3nccc(Nc4ccc(F)cc4)n3)cc2)CC1
74 | 179 to 181 °C | Cc1nc(-c2cccnc2)c(C)[nH]1
75 | 101 °C | COc1ccc(C(O)C(=S)N(C)C)cc1 (configuration not stated)
76 | 98 to 100 °C | C=C[C@H](O)[C@H](Cc1ccccc1)NC(=O)OC(C)(C)C
77 | 115 to 116 °C | COCCOc1ccc(O)c(C(=O)O)c1
78 | 183 °C | O=C(O)C(C(=O)O)C1c2ccccc2CCc2ccccc21
79 | 165 to 167 °C | Cc1ccccc1C1C(=O)CC2CCCCC2C1=O (configuration not stated)
80 | 171 to 172 °C | Cc1nc(N2C(=O)N(Cc3ccc(C(F)(F)F)cc3)CC2O)sc1C(=O)NCc1cccnc1 (configuration not stated)
81 | 169 to 170 °C | CC1(C(=O)O)CCc2c(-c3ccc(Cl)cc3)noc2C1 (configuration not stated)
82 | 167 to 168 °C | Fc1cc2nc3c(cnn3-c3ccccn3)c(Cl)c2cc1F
83 | 233 to 234 °C | COC(=O)c1cc(NC(=N)N)c(NC(C)=O)cc1O

Row | melting point | SMILES
84 | 84 to 86 °C | CCOC(=O)c1c(C)cc2cnc(C)nc2c1C
85 | 51.5 to 53 °C | Cc1ccc(C)c(OCc2ccccc2CC#N)c1
86 | 194 to 196 °C | COc1cc(OC)c2c(=O)[nH]c(-c3cc(C)c(CCCN4CCCC4)c(C)c3)nc2c1
87 | 151 to 152 °C | COc1ccc(NC(=O)c2ccc(Cl)c(Cl)c2)cc1Nc1cccc(C(F)(F)F)c1
88 | 162 °C | O=C(CC(CC(=O)c1ccc(F)cc1)c1cccc(-c2nnn[nH]2)c1)c1ccc(F)cc1
89 | 223 to 224 °C | NC1C(=O)Nc2ccccc2SC1Cc1ccccc1 (configuration not stated)
90 | < 150 °C | CCCc1cc(N2CCC(NCC(O)c3nccc4ccccc34)CC2)nc2sc(C(N)=O)c(N)c12 (configuration not stated)
91 | 260 °C | Cc1nc2c(C(F)(F)F)cccc2c(O)c1C(=O)O
92 | 215 to 217 °C | O=C(O)C(=O)CC(=O)c1cc(C(=O)CC(=O)C(=O)O)n(Cc2ccc(F)cc2)n1
93 | 200 to 202 °C | COC(=O)c1ccc(-c2nc(-c3ccc(OC)cc3)co2)cc1
94 | 95 to 97 °C | CCOC(=O)COc1ccc(C(=O)[C@H](Cc2ccc(OC)cc2)NC(=O)OC(C)(C)C)cc1
95 | 94 to 100 °C | COc1nc(NC(=N)SC)nc(OC)n1
96 | 155 to 156 °C | COc1cccc(C(=O)N2CCc3cc(S(=O)(=O)N4CCN(c5cccc(Cl)c5)CC4)ccc32)c1
97 | 102 to 103 °C | CCOC(=O)/C=C/c1ccc(OCCC2OCCO2)cc1Oc1ncc(C(F)(F)F)cc1Cl
98 | 261 °C | CCCCCCc1ccc(-c2ccc(-c3ccc(-c4ccc(-c5ccc(-c6ccc(CCCCCC)o6)o5)o4)o3)o2)o1
99 | 121 to 124 °C | O=C(NC/C=C\COc1cc(CN2CCCCC2)ccn1)NC1CCCC1
100 | 165 to 167 °C | Cc1[nH]c(C(=O)NCc2ccc3c(c2)OCO3)c(C)c1-c1nc2ccc(C(=O)c3ccccc3)cc2[nH]1
101 | 167 to 168 °C | COc1nc(Cl)nc(NC(=O)NS(=O)(=O)c2ccccc2OC(F)F)n1
102 | 80.5 to 82.5 °C | COc1cc(C(C)(C)C)c(OC)cc1I
